The source of these data is US20070149535A1, “Protein kinase inhibitors” (ONCALIS AG, priority 2004, published 2007).

What all share (experiment): Yeast growth assay, specificity profiling
Holding throughout (type): cell-based
What all share (parameters): key: “−” indicates no growth restoration i.e. no activity against the particular kinase; “+”, “++”, and “+++” indicate activity detected by restoration of growth, classified into three categories of potency; “+”, “++”, and “+++” indicate activity detected by restoration of growth, classified into three categories of potency; “+”, “++”, and “+++” indicate activity detected by restoration of growth, classified into three categories of potency
Settings in all cases: 7 concentrations between 0.2 and 100 μM

One assay deals with T1, EphA2 (Homo sapiens, UniProt P29317).
T1 construct: expressed in transfected cells; host or cells: yeast
T1 sequence (P29317 24-976): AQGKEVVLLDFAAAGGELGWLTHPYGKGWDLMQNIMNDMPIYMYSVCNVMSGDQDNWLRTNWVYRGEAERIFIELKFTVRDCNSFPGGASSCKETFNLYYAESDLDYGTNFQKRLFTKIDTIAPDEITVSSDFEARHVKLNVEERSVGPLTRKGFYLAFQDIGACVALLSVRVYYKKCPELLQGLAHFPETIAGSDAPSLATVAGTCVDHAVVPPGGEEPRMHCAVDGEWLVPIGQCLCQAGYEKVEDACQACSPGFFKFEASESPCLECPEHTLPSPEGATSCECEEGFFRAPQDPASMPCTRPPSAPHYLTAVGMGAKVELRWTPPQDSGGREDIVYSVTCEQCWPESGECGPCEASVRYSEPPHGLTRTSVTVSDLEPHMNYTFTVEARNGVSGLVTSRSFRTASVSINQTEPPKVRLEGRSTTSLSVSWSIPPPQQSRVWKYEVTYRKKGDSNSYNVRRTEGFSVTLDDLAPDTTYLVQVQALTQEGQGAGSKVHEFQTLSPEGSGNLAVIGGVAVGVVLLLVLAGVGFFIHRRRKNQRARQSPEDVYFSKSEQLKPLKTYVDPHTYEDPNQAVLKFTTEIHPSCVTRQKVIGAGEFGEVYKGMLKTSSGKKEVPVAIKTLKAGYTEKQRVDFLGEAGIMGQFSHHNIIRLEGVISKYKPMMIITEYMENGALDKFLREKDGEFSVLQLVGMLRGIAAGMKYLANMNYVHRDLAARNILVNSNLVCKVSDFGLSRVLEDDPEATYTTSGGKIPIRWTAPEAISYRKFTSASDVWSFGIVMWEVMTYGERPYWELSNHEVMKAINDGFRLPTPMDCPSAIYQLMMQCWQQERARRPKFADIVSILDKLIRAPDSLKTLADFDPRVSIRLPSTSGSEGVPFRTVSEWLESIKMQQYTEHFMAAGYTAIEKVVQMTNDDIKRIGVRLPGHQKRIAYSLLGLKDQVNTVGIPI
The procedure: (§1) Specificity Profiling: Yeast Growth Assay
(§2) The yeast growth assay was performed as described in “Method for the identification and/or validation of receptor tyrosine kinase inhibitors” PCT/CH03/00694 (2004/10/24), section “Modes for Carrying out the Invention, Experiment 1 and Experiment 2.
(§3) Briefly, yeast cells carrying plasmids with the RTK of interest were grown in glucose containing medium (repressing expression). The cultures were diluted into galactose containing medium, which induces the expression of the kinase. Expression of the kinase inhibits growth of the yeast cells, which allows for positive selection of kinase inhibitors restoring growth of cells. Compounds were titrated at 7 concentrations between 0.2 and 100 μM.
(§4) Specificity profiling of compounds, using the yeast growth assay method described above. “−” indicates no growth restoration i.e. no activity against the particular kinase, “+”, “++”, and “+++” indicate activity detected by restoration of growth, classified into three categories of potency according to the maximal level of growth restoration reached and the concentration at which the maximal growth restoration is reached.

The next assay deals with T2, TEK (Homo sapiens, UniProt Q02763).
T2 construct: expressed in transfected cells; host or cells: yeast
T2 sequence (Q02763 23-1124): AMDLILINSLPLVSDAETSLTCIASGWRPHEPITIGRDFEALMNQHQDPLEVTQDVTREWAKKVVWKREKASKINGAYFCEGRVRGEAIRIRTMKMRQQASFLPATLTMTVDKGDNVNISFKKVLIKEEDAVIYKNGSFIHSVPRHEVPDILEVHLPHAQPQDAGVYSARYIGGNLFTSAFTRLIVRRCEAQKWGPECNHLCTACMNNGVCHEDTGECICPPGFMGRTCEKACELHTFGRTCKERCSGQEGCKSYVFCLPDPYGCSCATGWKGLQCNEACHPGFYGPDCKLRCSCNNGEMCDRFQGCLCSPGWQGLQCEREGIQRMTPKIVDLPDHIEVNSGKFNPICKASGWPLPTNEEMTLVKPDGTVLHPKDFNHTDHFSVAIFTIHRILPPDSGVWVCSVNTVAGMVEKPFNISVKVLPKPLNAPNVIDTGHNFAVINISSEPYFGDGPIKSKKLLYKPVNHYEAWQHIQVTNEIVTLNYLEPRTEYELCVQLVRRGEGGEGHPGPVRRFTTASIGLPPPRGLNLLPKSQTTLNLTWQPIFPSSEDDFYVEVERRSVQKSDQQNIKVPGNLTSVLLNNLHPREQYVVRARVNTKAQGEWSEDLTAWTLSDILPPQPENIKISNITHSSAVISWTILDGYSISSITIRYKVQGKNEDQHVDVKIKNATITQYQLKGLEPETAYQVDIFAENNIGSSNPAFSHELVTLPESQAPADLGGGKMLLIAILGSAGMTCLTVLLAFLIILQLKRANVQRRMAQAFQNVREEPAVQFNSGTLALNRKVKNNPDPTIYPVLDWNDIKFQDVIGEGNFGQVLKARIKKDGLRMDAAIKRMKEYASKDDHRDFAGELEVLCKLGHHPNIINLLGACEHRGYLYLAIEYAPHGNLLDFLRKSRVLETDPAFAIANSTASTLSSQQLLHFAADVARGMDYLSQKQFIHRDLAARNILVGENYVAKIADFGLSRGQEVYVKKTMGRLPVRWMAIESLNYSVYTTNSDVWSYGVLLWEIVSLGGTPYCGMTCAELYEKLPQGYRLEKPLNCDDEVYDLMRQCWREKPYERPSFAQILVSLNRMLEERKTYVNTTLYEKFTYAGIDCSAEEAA
On the procedure: as §1, §2, §3, §4

The target in a further assay is T3, VEGFR1 (Homo sapiens, UniProt P17948).
T3 construct: expressed in transfected cells; host or cells: yeast
T3 sequence (P17948 27-1338): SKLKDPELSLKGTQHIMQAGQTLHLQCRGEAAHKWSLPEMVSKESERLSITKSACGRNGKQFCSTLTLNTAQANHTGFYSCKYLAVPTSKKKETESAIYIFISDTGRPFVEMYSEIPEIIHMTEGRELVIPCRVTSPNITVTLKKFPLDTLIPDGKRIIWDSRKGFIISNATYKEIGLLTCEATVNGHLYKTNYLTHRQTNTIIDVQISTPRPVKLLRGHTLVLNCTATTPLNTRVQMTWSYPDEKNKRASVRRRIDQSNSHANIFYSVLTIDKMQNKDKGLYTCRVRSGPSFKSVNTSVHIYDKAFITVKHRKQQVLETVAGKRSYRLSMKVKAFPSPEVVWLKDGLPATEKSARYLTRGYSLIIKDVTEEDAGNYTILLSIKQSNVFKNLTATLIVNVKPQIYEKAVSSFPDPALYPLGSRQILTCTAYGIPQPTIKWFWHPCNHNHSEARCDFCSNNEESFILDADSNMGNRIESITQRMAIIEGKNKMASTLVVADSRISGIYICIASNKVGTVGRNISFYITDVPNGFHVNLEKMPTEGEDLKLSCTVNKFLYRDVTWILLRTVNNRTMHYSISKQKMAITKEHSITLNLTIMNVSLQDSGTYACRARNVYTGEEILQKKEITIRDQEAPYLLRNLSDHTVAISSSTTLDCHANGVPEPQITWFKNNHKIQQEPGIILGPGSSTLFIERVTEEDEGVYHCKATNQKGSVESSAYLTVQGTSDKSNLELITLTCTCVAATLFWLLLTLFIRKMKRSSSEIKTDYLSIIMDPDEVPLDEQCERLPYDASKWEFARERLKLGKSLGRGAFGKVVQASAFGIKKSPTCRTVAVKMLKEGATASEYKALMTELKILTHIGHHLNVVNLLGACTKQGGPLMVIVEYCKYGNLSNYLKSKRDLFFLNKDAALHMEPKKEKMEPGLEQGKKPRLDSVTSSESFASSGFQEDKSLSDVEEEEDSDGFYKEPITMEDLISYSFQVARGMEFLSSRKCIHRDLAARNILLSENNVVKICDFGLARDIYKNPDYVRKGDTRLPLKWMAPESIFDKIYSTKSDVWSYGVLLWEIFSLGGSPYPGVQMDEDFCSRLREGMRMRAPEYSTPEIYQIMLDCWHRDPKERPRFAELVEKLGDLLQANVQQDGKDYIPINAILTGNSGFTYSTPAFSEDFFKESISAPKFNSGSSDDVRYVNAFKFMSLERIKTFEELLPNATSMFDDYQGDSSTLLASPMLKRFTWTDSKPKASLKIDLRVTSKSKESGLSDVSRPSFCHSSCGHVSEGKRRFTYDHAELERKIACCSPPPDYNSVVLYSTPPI
On the procedure: as §1, §2, §3, §4

The next assay has as its target T4, VEGFR2 (Homo sapiens, UniProt P35968).
T4 construct: expressed in transfected cells; host or cells: yeast
The procedure: as §1, §2, §3, §4

The target in the next assay is T5, EphB4 (Homo sapiens, UniProt P54760).
T5 construct: expressed in transfected cells; host or cells: yeast
T5 sequence (P54760 16-987): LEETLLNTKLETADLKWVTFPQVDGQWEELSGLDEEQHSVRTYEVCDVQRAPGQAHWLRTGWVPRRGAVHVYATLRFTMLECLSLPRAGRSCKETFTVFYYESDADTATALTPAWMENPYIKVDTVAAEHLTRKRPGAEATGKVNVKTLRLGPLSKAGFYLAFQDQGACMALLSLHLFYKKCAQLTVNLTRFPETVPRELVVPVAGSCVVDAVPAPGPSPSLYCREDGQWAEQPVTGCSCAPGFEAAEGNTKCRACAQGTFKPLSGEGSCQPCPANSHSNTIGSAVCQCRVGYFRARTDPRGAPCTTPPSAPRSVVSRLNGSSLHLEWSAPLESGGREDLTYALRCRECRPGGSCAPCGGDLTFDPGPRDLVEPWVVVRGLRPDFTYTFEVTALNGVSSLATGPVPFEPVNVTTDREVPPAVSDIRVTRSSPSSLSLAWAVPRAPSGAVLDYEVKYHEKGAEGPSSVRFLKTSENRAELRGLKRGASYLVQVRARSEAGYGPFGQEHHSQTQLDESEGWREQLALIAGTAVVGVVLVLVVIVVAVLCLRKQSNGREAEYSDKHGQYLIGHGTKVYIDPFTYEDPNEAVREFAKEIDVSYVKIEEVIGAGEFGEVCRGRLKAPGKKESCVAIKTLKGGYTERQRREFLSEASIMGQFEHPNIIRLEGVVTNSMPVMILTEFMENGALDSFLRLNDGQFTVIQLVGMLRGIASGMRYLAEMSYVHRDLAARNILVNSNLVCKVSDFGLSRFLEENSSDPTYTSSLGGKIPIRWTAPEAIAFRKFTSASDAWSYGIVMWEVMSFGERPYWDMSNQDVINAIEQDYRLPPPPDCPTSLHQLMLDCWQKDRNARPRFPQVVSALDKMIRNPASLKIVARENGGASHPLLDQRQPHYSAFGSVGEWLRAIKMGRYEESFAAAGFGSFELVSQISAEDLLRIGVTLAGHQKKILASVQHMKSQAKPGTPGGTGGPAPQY
The procedure: as §1, §2, §3, §4

The target of the next assay is T6, IGF-1R (Homo sapiens, UniProt P08069).
T6 construct: expressed in transfected cells; host or cells: yeast
The procedure:
as §1, §2, §3, §4

T4 sequence (P35968 20-1356): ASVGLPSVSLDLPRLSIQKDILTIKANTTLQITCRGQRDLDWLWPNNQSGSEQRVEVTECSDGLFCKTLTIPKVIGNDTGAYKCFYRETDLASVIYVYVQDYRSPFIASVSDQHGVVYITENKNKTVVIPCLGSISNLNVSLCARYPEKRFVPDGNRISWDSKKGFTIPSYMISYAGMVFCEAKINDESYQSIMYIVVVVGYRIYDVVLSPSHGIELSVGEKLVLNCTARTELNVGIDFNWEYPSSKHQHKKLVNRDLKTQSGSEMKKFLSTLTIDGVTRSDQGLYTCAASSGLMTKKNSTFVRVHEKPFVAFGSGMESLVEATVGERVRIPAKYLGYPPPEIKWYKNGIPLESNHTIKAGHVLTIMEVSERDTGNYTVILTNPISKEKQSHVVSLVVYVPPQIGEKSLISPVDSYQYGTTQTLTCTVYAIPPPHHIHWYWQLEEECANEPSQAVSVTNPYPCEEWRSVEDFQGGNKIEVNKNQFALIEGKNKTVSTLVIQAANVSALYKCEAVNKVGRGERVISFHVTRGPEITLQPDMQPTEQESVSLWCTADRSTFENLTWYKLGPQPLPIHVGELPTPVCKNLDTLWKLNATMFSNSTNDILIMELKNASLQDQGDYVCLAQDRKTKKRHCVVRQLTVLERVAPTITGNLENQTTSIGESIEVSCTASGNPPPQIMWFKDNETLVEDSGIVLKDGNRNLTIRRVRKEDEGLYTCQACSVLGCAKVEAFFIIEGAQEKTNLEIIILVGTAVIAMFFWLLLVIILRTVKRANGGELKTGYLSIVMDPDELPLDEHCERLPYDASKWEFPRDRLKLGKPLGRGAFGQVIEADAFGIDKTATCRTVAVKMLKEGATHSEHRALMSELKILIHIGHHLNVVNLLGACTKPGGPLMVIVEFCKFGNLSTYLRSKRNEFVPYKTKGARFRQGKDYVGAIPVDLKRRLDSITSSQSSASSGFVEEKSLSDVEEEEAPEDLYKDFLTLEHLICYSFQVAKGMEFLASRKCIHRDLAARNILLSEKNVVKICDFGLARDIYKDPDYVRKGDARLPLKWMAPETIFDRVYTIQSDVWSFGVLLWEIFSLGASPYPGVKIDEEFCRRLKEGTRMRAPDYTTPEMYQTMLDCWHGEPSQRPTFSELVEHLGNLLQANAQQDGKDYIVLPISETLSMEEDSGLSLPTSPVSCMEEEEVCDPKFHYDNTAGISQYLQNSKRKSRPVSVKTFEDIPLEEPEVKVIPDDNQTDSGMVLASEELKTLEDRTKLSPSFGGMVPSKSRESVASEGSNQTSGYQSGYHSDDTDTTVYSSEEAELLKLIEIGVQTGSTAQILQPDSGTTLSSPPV

Regarding `Cc1cccc(Nc2c(-c3ccccc3)nc3cnccn23)c1` [compound 34, (2-Phenyl-imidazo[1,2-a]pyrazin-3-yl)-m-tolyl-amine], the EphA2 growth restoration result at EphA2 is “−”. Also, at TEK, the TEK growth restoration entry is given as “−”. Besides, the VEGFR1 growth restoration entry at VEGFR1 is listed as “−”. Moreover, the VEGFR2 growth restoration entry on VEGFR2 is reported as “−”. On EphB4, the EphB4 growth restoration result is reported as “+ −”. The IGF-1R growth restoration result on IGF-1R is given as “−”.

As to `Clc1cccc(Nc2c(-c3ccccc3)nc3cnccn23)c1` [compound 35, (3-Chloro-phenyl)-(2-phenyl-imidazo[1,2-a]pyrazin-3-yl)-amine], the EphA2 growth restoration entry at EphA2 is recorded as “−”. For the same compound, the TEK growth restoration result on TEK is “−”. Further, the VEGFR1 growth restoration entry on VEGFR1 was “−”. For the same compound, the VEGFR2 growth restoration entry on VEGFR2 is reported as “−”. The EphB4 growth restoration result on EphB4 is recorded as “+”. Further, the IGF-1R growth restoration result on IGF-1R was “−”.

As to `c1ccc(Nc2c(-c3ccc(N4CCOCC4)cc3)nc3cnccn23)cc1` [compound 38, [2-(4-Morpholin-4-yl-phenyl)-imidazo[1,2-a]pyrazin-3-yl]-phenyl-amine], the EphA2 growth restoration entry on EphA2 is “+”. Besides, the TEK growth restoration entry on TEK was “−”. The VEGFR1 growth restoration result at VEGFR1 is “+”. For the same compound, the VEGFR2 growth restoration result at VEGFR2 is “−”. The EphB4 growth restoration result at EphB4 is on record as “++”. The IGF-1R growth restoration entry at IGF-1R was “−”.

As for `Cc1nccn2c(Nc3ccccc3)c(-c3ccccc3)nc12` [compound 39, (8-Methyl-2-phenyl-imidazo[1,2-a]pyrazin-3-yl)-phenyl-amine], the EphA2 growth restoration entry on EphA2 was “+”. For the same compound, the TEK growth restoration entry on TEK is “−”. Also, the VEGFR1 growth restoration entry on VEGFR1 is given as “−”. In addition, on VEGFR2, the VEGFR2 growth restoration result is reported as “−”. Also, the EphB4 growth restoration entry at EphB4 was “+++”. Also, the IGF-1R growth restoration entry at IGF-1R is given as “−”.

For the compound `COc1cccc(-c2nc3c(C)nccn3c2Nc2cccc(C)c2)c1` [compound 42, [2-(3-Methoxy-phenyl)-8-methyl-imidazo[1,2-a]pyrazin-3-yl]-m-tolyl-amine], the EphA2 growth restoration result on EphA2 was “+”. In addition, the TEK growth restoration result on TEK is listed as “−”. Besides, the VEGFR1 growth restoration result at VEGFR1 is “−”. Further, the VEGFR2 growth restoration entry on VEGFR2 was “−”. Moreover, on EphB4, the EphB4 growth restoration entry is “++”. In addition, the IGF-1R growth restoration result at IGF-1R is reported as “−”.

In the case of `Cc1cccc(Nc2c(-c3ccccc3)nc3c(C)nccn23)c1` [compound 43, (8-Methyl-2-phenyl-imidazo[1,2-a]pyrazin-3-yl)-m-tolyl-amine], the EphA2 growth restoration result at EphA2 is reported as “−”. The TEK growth restoration entry at TEK is on record as “−”. The VEGFR1 growth restoration entry on VEGFR1 is “−”. Besides, the VEGFR2 growth restoration result on VEGFR2 is reported as “−”. Besides, the EphB4 growth restoration entry at EphB4 was “+++”. In addition, on IGF-1R, the IGF-1R growth restoration result is on record as “−”.

With `Cc1nccn2c(Nc3cccc(F)c3)c(-c3ccccc3)nc12` [compound 44, (3-Fluoro-phenyl)-(8-methyl-2-phenyl-imidazo[1,2-a]pyrazin-3-yl)-amine], the EphA2 growth restoration result on EphA2 is on record as “−”. The TEK growth restoration entry at TEK was “−”. Moreover, the VEGFR1 growth restoration result at VEGFR1 is recorded as “−”. The VEGFR2 growth restoration entry on VEGFR2 is reported as “−”. Moreover, the EphB4 growth restoration result on EphB4 is recorded as “+++”. In addition, at IGF-1R, the IGF-1R growth restoration entry is “−”.

For the compound `Cc1nccn2c(Nc3ccc(F)c(F)c3)c(-c3ccccc3)nc12` [compound 45, (3,4-Difluoro-phenyl)-(8-methyl-2-phenyl-imidazo[1,2-a]pyrazin-3-yl)-amine], on EphA2, the EphA2 growth restoration entry is listed as “−”. Also, the TEK growth restoration result at TEK was “−”. In addition, on VEGFR1, the VEGFR1 growth restoration entry is “−”. In addition, the VEGFR2 growth restoration result at VEGFR2 was “−”. At EphB4, the EphB4 growth restoration entry is listed as “+++”. Besides, the IGF-1R growth restoration entry at IGF-1R is “−”.

As to `COc1cccc(-c2nc3c(C)nccn3c2Nc2cccc(Cl)c2)c1` [compound 48, (3-Chloro-phenyl)-[2-(3-methoxy-phenyl)-8-methyl-imidazo[1,2-a]pyrazin-3-yl]-amine], the EphA2 growth restoration entry on EphA2 was “+”. The TEK growth restoration entry on TEK is “−”. The VEGFR1 growth restoration entry at VEGFR1 was “−”. In addition, the VEGFR2 growth restoration result on VEGFR2 is listed as “−”. Moreover, the EphB4 growth restoration entry on EphB4 is listed as “++”. Moreover, the IGF-1R growth restoration entry on IGF-1R was “−”.
